According to article PMC8447253 (2021):

Assays:
Assay in all cases: emission titration (737 nm), Bard equation
Conditions in all cases: K+ (50 mM potassium phosphate), pH 7, enantiomer by table order, per base
[1] = tested on: d(GCGCGCGCGC)2; (GC)5 (DNA, duplex) GCGCGCGCGC
[2] = tested on: d(CGCAAATTTGCG)2 (DNA, duplex) CGCAAATTTGCG
[3] = tested on: d(ATTATTATTATATTA)/d(TAATATAATAATAAT) (AT DNA) (DNA, duplex) ATTATTATTATATTA/TAATATAATAATAAT
[4] = tested on: d(CGCGAATTCGCG)2 (DNA, duplex) CGCGAATTCGCG

KDNA ([1]; site size n 3.1 ± 0.1 base pairs): 770000 M⁻¹ | KDNA ([1]; site size n 4.8 ± 0.2 base pairs): 610000 M⁻¹ | KDNA ([2]; site size n 1.92 ± 0.04 base pairs): 1.7e+06 M⁻¹ | KDNA ([2]; site size n 2.10 ± 0.09 base pairs): 480000 M⁻¹ | KDNA ([3]; site size n 2.25 ± 0.05 base pairs): 4e+06 M⁻¹ | KDNA ([3]; site size n 2.28 ± 0.05 base pairs): 3e+06 M⁻¹ | KDNA ([4]; site size n 1.6 ± 0.1 base pairs): 1.4e+06 M⁻¹ | KDNA ([4]; site size n 1.7 ± 0.1 base pairs): 510000 M⁻¹
Compound: Cc1cnc2c(ccc3c(C)c(C)cnc32)c1C.Cc1cnc2c(ccc3c(C)c(C)cnc32)c1C.[Cr+3].c1ccc2nc3c4cccnc4c4ncccc4c3nc2c1
